Data set [1] can be described thus: Circular dichroism (CD) spectroscopy of peptide assemblies. It is filed as physicochemical. As to conditions: 100 µM, aqueous, 0.5 mm path. On the procedure:
CD spectra of the peptide assemblies in aqueous solutions were recorded under the nitrogen atmosphere using a spectrophotometer JASCO J-820 (Jasco, Japan). A quartz cuvette with 0.5 mm path length was used as a sample container. Continuous scanning mode is applied. And each sample is scanned three times to obtain an averaged spectrum.

Another data set concerns integrin α3β1. Kind of data set: MicroScale Thermophoresis integrin binding. On the set-up: species or system human. As to conditions: MST, n = 3. An excerpt: The interaction between integrins and peptide ligands in PBS was quantified by a Monolith® NT.115Pico (NanoTemper Technology, Germany) using MO. Control 1.6 software. Recombinant human integrin proteins, including alpha-3/ beta-1, alpha-5/beta-1, and alpha-6/ beta-1, were purchased from R&D Systems (USA). Recombinant integrin proteins were labeled by Monolith^TM Protein Labeling Kit RED-NHS (NanoTemper Technology) following the instruction provided by the manufacturer. The fluorescence-labeled integrin solution was mixed with peptides solution in 15 concentration gradients at a 1:1 ratio. The Monolith^TM NT.115 MST Premium Coated Capillaries (NanoTemper Technology) were applied to draw the mixed solution with the order of declining ligand concentration. Pretests were performed to ensure the protein concentration and fluorescent intensities in each tube were equal. Following that, quantitative binding affinity was measured three times.

In data set [2] the test system is integrin α3β1 expressing cells (HuH-7, HeLa, HepG2, A549, MKN1, and U-87 MG). The experiment in a line: Wound healing assay, integrin α3β1 expressing cells. It is filed as cell-based, human. To be noted: 10-200 µM. The protocol: Healthy cells were seeded in 96-well Image Lock plates (Essen Bioscience, UK). Each well contained 2 ×10^4 to 5 × 10^4 cells in 100 μL of complete cell culture medium. Cell monolayer with approximately 90% confluence formed after 12 hr and cells were next starved in serum-free culture medium for 12 hrs. Homogenous scratch wounds with a width of about 700 μm were made by an Essen BioScienceWound Maker. The detached cells were washed with Dulbecco’s Buffered Saline (DPBS, Gibco) 3 times. Cells were incubated with 100 μL of culture medium containing 0.5 % FBS and desired concentration of each peptide. Wound closure was monitored by an IncucyteS3 (Essen Bioscience) with a 10x objective. Images for each well were acquired every 2 hr to 8 hr for 2 days or until the wounds were closed completely. The wound healing rate was quantified by Incucyte Scratch Wound Analysis Module (Essen Bioscience). The experiments were repeated at least 3 times, and the results were presented as mean ± standard deviation of at least 3 independent experiments.

Data set [3] has as its system cells lacking integrin α3β1 expression. The experiment in a line: Cell adhesion assay, cells lacking integrin α3β1. It is filed as cell-based, human. To be noted: coated with 100 µM, 1 h at 37 °C, n = 30. The protocol:
The 96-well microplates wells were coated with peptide assemblies (the concentration of FFFIKLLI was kept at 100 μM constantly) for 12 hr at 37 °C before blocked with the Blocking Buffer (2% BSA, 1 mM CaCI2 and 1 mM MnCI2 in PBS) for 1 hr at 37 °C. Cells were collected from culture dishes and suspended in the Blocking Buffer containing anti-laminin-5 (P3H9-2, MAB1947, Chemicon, 5 μg/ml), anti-fibronectin (IST-9, ab6328, Abcam, 20 μg/ml) or IgG isotype control (20 μg/ml, Abcam) before immediately seeded to the coated well (20,000 cells/well) and allowed to incubate at 37 °C for 1 h. The wells were washed for three times with the Blocking Buffer and the phase-contrast images were captured by IncucyteS3 (Essen Bioscience) with a 10× objective.

In the case of “FFFIKLLI [assembling ligand: FFF coupled to the N-terminus of IKLLI; self-assembles into nanofilaments]”, the “secondary structure of self-assembly” value in data set [1] is given as “random coil structure”. In addition, the integrin-binding affinity result in the data set with integrin α3β1 (PBS, integrin 2 nM, in words) was “highest binding affinity”. The integrin selectivity result in the data set with integrin α3β1 (integrin α3β1 vs α5β1 and α6β1, integrin 2 nM) is listed as “selectively targeted integrin α3β1”. In data set [2], the “effect on cell migration” value is recorded as “suppression effect”. The “adherence to FFFIKLLI-coated dishes” value in data set [3] is listed as “washed out”.

The values are drawn from paper PMC9411606, “Control cell migration by engineering integrin ligand assembly” (Nature Communications, 2022).
